According to patent US20170333509A1, “MAILLARD REACTION PRODUCT-DECOMPOSING AGENT” (ARKRAY, Inc., priority 2016, published 2017):

How the values were obtained:
[1] = tested on: AGEs modified bovine serum albumin (AGE-BSA) cross-linked to collagen; assay: AGEs Cross-Link Breaking Effect Confirmatory Test 2 (AGE-BSA cross-linked to collagen-coated microplate, ELISA); format: biochemical; conditions: cross-link breaking reaction at 37° C. for 18 hours
Protocol: The test was carried out according to the description in Sara Vasan et al. (Nature, 382, pp 275-278 (1996)).
300 μL/well of SuperBlock T20 (PBS) Blocking Buffer was added to a commercially available 96-well microplate precoated with collagen, which then was reacted at 37° C. for one hour. After the reaction, it was washed with 0.05% polyethylene (20) sorbitan monolaurate (Tween 20)/PBS(−), and then AGEs modified bovine serum albumin (AGE-BSA) was added to each well of the microplate, which then was subjected to a crosslinking reaction at 37° C. for four hours. After the reaction, it was washed with Tween 20/PBS(−). Thereafter, a plant extract was added to each well and thereby it was subjected to a cross-link breaking (cleaving) reaction at 37° C. for 18 hours. After that, it was washed with Tween 20/PBS(−) and a primary antibody (anti-albumin bovine serum rabbit-polyclonal) was added thereto, which then was reacted at room temperature for 30 minutes. […] As a reaction stop solution, 1N HCl was added thereto, and the absorbance at 450 nm (dominant wavelength)/630 nm (complementary wavelength) was measured with a microplate reader. The amount of AGE-BSA that remained was determined from a calibration curve in which the amount of AGE-BSA was varied. Furthermore, the AGE-BSA decomposition rate (Collagen cross-link decomposition rate) was determined using the following formula. […]

[2] = AGEs Cross-Link Breaking Effect Confirmatory Test 1 (benzoic acid from PPD by reverse-phase HPLC); format: biochemical; conditions: plant extract (hot water, 80° C.) or 10 mmol/L PTB : 10 mmol/L PPD : 0.2 mol/L phosphate buffer pH 7.4 = 5:1:4, 37° C., eight hours, n=3
Protocol: The test was carried out according to the description in […] al. (Nature, 382, pp 275-278 (1996)). […] A plant extract, 10 mmol/L of PPD, and 0.2 mol/L of phosphate buffer solution (pH 7.4) were mixed together at a ratio of 5:1:4 and then were reacted at 37° C. for eight hours (n=3). After completion of the reaction, hydrochloric acid was added thereto to stop the reaction. […] The amount of benzoic acid contained in the reaction solution was determined by subtracting the amount of benzoic acid contained in the sample, which was measured separately. Since 1 mol of PPD produces 1 mol of benzoic acid, the cross-link breaking rate was calculated by the following formula. Cross-link breaking rate (%)={(A-B)/C}×100 A: The amount of benzoic acid contained in the reaction solution B: The amount of benzoic acid contained in the sample C: The amount of PPD provided for the reaction (the amount of the substrate) As a control, a test was carried out using 10 mmol/L of PTB instead of the plant extract.

SMILES | Collagen Cross-Link Decomposition Rate (%) (AGE-BSA decomposition rate) [1] | Amount of Remaining AGE-BSA ([1]; absorbance 450 nm/630 nm, calibration curve) | Cross-Link Breaking Rate (%) (Mean Value ± Standard Deviation) [2]
O=C1O[C@H]2[C@@H]3OC(=O)c4cc(O)c(O)c(O)c4-c4c(O)c(O)c5oc(=O)c6c(c(O)c(O)c7oc(=O)c4c5c76)-c4c(cc(O)c(O)c4O)C(=O)OC[C@H]3OC(O)[C@@H]2OC(=O)c2cc(O)c(O)c(O)c2-c2c1cc(O)c(O)c2O (mixture of isomers) [Punicalagin, punicalagin] | 65.7% | 343.3 ng | –
O=C(C[n+]1ccsc1)c1ccccc1.[Br-] [PTB, N-phenacylthiazolium bromide] | – | – | 20.47 ± 0.29%
